PubChem BioAssay (NCI)
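Briefly, cells in 96-well plates were exposed to five compound concentrations for 48 h, and endpoints were estimated by linear interpolation. TGI marks complete inhibition of growth.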

Key:
Assay in all cases: NCI anticancer screen, dose series, 48 h
786-0 renal = tested on: 786-0 renal
A549 NSCLC = tested on: A549 NSCLC
ACHN renal = tested on: ACHN renal
CAKI-1 renal = tested on: CAKI-1 renal
CCRF-CEM leukemia = tested on: CCRF-CEM leukemia
COLO 205 colon = tested on: COLO 205 colon
DLD-1 colon = tested on: DLD-1 colon
DMS 114 small cell lung = tested on: DMS 114 small cell lung
DMS 273 small cell lung = tested on: DMS 273 small cell lung
EKVX NSCLC = tested on: EKVX NSCLC
HCC-2998 colon = tested on: HCC-2998 colon
HCT-116 colon = tested on: HCT-116 colon
HOP-62 NSCLC = tested on: HOP-62 NSCLC
HOP-92 NSCLC = tested on: HOP-92 NSCLC
HT29 colon = tested on: HT29 colon
IGROV1 ovarian = tested on: IGROV1 ovarian
K-562 leukemia = tested on: K-562 leukemia
KM12 colon = tested on: KM12 colon
KM20L2 colon = tested on: KM20L2 colon
LOX IMVI melanoma = tested on: LOX IMVI melanoma
LXFL 529 NSCLC = tested on: LXFL 529 NSCLC
M14 melanoma = tested on: M14 melanoma
M19-MEL melanoma = tested on: M19-MEL melanoma
MALME-3M melanoma = tested on: MALME-3M melanoma
MOLT-4 leukemia = tested on: MOLT-4 leukemia
NCI-H226 lung = tested on: NCI-H226 lung
NCI-H23 lung = tested on: NCI-H23 lung
NCI-H460 lung = tested on: NCI-H460 lung
NCI-H522 lung = tested on: NCI-H522 lung
OVCAR-3 ovarian = tested on: OVCAR-3 ovarian
OVCAR-4 ovarian = tested on: OVCAR-4 ovarian
OVCAR-5 ovarian = tested on: OVCAR-5 ovarian
OVCAR-8 ovarian = tested on: OVCAR-8 ovarian
RXF 393 renal = tested on: RXF 393 renal
SF-268 CNS = tested on: SF-268 CNS
SF-295 CNS = tested on: SF-295 CNS
SF-539 CNS = tested on: SF-539 CNS
SK-MEL-2 melanoma = tested on: SK-MEL-2 melanoma
SK-MEL-28 melanoma = tested on: SK-MEL-28 melanoma
SK-MEL-5 melanoma = tested on: SK-MEL-5 melanoma
SK-OV-3 ovarian = tested on: SK-OV-3 ovarian
SN12C renal = tested on: SN12C renal
SNB-19 CNS = tested on: SNB-19 CNS
SNB-75 CNS = tested on: SNB-75 CNS
SNB-78 CNS = tested on: SNB-78 CNS
SR leukemia = tested on: SR leukemia
SW-620 colon = tested on: SW-620 colon
TK-10 renal = tested on: TK-10 renal
U251 CNS = tested on: U251 CNS
UACC-62 melanoma = tested on: UACC-62 melanoma
UO-31 renal = tested on: UO-31 renal
XF 498 CNS = tested on: XF 498 CNS
A498 renal = tested on: A498 renal
HCT-15 colon = tested on: HCT-15 colon
HL-60(TB) leukemia = tested on: HL-60(TB) leukemia
HOP-18 NSCLC = tested on: HOP-18 NSCLC
RPMI-8226 leukemia = tested on: RPMI-8226 leukemia
UACC-257 melanoma = tested on: UACC-257 melanoma

Structure (SMILES): O=c1c2cccnc2ncn1CCN1CCCC1
- TGI (786-0 renal): > 100 µM
- TGI (A549 NSCLC): > 100 µM
- TGI (ACHN renal): > 100 µM
- TGI (CAKI-1 renal): > 100 µM
- TGI (CCRF-CEM leukemia): > 100 µM
- TGI (COLO 205 colon): > 100 µM
- TGI (DLD-1 colon): > 100 µM
- TGI (DMS 114 small cell lung): > 100 µM
- TGI (DMS 273 small cell lung): > 100 µM
- TGI (EKVX NSCLC): > 100 µM
- TGI (HCC-2998 colon): > 100 µM
- TGI (HCT-116 colon): > 100 µM
- TGI (HOP-62 NSCLC): > 100 µM
- TGI (HOP-92 NSCLC): > 100 µM
- TGI (HT29 colon): > 100 µM
- TGI (IGROV1 ovarian): > 100 µM
- TGI (K-562 leukemia): > 100 µM
- TGI (KM12 colon): > 100 µM
- TGI (KM20L2 colon): > 100 µM
- TGI (LOX IMVI melanoma): > 100 µM
- TGI (LXFL 529 NSCLC): > 100 µM
- TGI (M14 melanoma): > 100 µM
- TGI (M19-MEL melanoma): > 100 µM
- TGI (MALME-3M melanoma): > 100 µM
- TGI (MOLT-4 leukemia): > 100 µM
- TGI (NCI-H226 lung): > 100 µM
- TGI (NCI-H23 lung): > 100 µM
- TGI (NCI-H460 lung): > 100 µM
- TGI (NCI-H522 lung): > 100 µM
- TGI (OVCAR-3 ovarian): > 100 µM
- TGI (OVCAR-4 ovarian): > 100 µM
- TGI (OVCAR-5 ovarian): > 100 µM
- TGI (OVCAR-8 ovarian): > 100 µM
- TGI (RXF 393 renal): > 100 µM
- TGI (SF-268 CNS): > 100 µM
- TGI (SF-295 CNS): > 100 µM
- TGI (SF-539 CNS): > 100 µM
- TGI (SK-MEL-2 melanoma): > 100 µM
- TGI (SK-MEL-28 melanoma): > 100 µM
- TGI (SK-MEL-5 melanoma): > 100 µM
- TGI (SK-OV-3 ovarian): > 100 µM
- TGI (SN12C renal): > 100 µM
- TGI (SNB-19 CNS): > 100 µM
- TGI (SNB-75 CNS): > 100 µM
- TGI (SNB-78 CNS): > 100 µM
- TGI (SR leukemia): > 100 µM
- TGI (SW-620 colon): > 100 µM
- TGI (TK-10 renal): > 100 µM
- TGI (U251 CNS): > 100 µM
- TGI (UACC-62 melanoma): > 100 µM
- TGI (UO-31 renal): > 100 µM
- TGI (XF 498 CNS): > 100 µM

Structure (SMILES): Cc1cccc(C)c1NC(=O)CCc1n[nH]c(=S)o1
- TGI (786-0 renal): > 100 µM
- TGI (A498 renal): > 100 µM
- TGI (A549 NSCLC): > 100 µM
- TGI (ACHN renal): > 100 µM
- TGI (CAKI-1 renal): > 100 µM
- TGI (CCRF-CEM leukemia): > 100 µM
- TGI (COLO 205 colon): 85.1 µM
- TGI (DLD-1 colon): > 100 µM
- TGI (DMS 114 small cell lung): > 100 µM
- TGI (DMS 273 small cell lung): > 100 µM
- TGI (EKVX NSCLC): > 100 µM
- TGI (HCC-2998 colon): > 100 µM
- TGI (HCT-116 colon): 36.7 µM
- TGI (HCT-15 colon): > 100 µM
- TGI (HL-60(TB) leukemia): > 100 µM
- TGI (HOP-18 NSCLC): > 100 µM
- TGI (HOP-62 NSCLC): > 100 µM
- TGI (HOP-92 NSCLC): > 100 µM
- TGI (HT29 colon): > 100 µM
- TGI (IGROV1 ovarian): > 100 µM
- TGI (K-562 leukemia): > 100 µM
- TGI (KM12 colon): > 100 µM
- TGI (KM20L2 colon): > 100 µM
- TGI (LXFL 529 NSCLC): > 100 µM
- TGI (M14 melanoma): > 100 µM
- TGI (M19-MEL melanoma): > 100 µM
- TGI (MALME-3M melanoma): > 100 µM
- TGI (MOLT-4 leukemia): > 100 µM
- TGI (NCI-H226 lung): > 100 µM
- TGI (NCI-H23 lung): > 100 µM
- TGI (NCI-H460 lung): > 100 µM
- TGI (NCI-H522 lung): > 100 µM
- TGI (OVCAR-3 ovarian): > 100 µM
- TGI (OVCAR-4 ovarian): > 100 µM
- TGI (OVCAR-5 ovarian): > 100 µM
- TGI (OVCAR-8 ovarian): > 100 µM
- TGI (RPMI-8226 leukemia): 56.7 µM
- TGI (SF-268 CNS): > 100 µM
- TGI (SF-295 CNS): > 100 µM
- TGI (SF-539 CNS): > 100 µM
- TGI (SK-MEL-28 melanoma): > 100 µM
- TGI (SK-MEL-5 melanoma): > 100 µM
- TGI (SK-OV-3 ovarian): > 100 µM
- TGI (SN12C renal): > 100 µM
- TGI (SNB-19 CNS): > 100 µM
- TGI (SNB-75 CNS): > 100 µM
- TGI (SNB-78 CNS): > 100 µM
- TGI (SW-620 colon): 36.2 µM
- TGI (TK-10 renal): > 100 µM
- TGI (U251 CNS): > 100 µM
- TGI (UACC-257 melanoma): > 100 µM
- TGI (UACC-62 melanoma): > 100 µM
- TGI (UO-31 renal): > 100 µM
